Measured values: patent US11242335B2, “Fluorine-substituted indazole compounds and uses thereof” (SUNSHINE LAKE PHARMA CO., LTD., priority 2017, dated 2022)

Tests used:
[1] = target: T1, soluble guanylate cyclase (sGC) expressed by CHO-K1-Rat sGC monoclonal cell line (Rattus norvegicus, UniProt P19686+P20595); experiment: Effect on recombinant guanylate cyclase reporter cell line (CHO-K1-Rat sGC, Cisbio cGMP HTRF); format: cell-based; settings: activating soluble guanylate cyclase
T1 construct: expressed in transfected cells; host or cells: CHO-K1
T1 sequence (P19686 1-690): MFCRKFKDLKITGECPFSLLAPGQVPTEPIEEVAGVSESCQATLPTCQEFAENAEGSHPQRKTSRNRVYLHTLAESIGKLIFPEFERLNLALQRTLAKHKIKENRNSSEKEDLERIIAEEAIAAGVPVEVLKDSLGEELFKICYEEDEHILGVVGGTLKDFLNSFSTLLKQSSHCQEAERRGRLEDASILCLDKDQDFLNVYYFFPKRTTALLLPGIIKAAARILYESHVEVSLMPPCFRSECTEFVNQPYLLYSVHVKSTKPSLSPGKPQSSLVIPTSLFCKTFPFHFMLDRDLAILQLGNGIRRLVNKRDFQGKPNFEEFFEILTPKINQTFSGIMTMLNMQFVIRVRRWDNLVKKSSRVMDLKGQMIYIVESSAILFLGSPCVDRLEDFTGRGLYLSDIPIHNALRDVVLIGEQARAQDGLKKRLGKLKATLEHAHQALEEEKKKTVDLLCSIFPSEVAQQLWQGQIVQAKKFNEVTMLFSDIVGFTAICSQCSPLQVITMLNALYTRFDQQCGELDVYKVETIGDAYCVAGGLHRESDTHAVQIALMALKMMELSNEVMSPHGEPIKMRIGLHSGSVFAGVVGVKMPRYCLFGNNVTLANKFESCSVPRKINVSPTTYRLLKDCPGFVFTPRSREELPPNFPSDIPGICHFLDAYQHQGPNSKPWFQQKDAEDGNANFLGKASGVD
T1 sequence (P20595 1-619): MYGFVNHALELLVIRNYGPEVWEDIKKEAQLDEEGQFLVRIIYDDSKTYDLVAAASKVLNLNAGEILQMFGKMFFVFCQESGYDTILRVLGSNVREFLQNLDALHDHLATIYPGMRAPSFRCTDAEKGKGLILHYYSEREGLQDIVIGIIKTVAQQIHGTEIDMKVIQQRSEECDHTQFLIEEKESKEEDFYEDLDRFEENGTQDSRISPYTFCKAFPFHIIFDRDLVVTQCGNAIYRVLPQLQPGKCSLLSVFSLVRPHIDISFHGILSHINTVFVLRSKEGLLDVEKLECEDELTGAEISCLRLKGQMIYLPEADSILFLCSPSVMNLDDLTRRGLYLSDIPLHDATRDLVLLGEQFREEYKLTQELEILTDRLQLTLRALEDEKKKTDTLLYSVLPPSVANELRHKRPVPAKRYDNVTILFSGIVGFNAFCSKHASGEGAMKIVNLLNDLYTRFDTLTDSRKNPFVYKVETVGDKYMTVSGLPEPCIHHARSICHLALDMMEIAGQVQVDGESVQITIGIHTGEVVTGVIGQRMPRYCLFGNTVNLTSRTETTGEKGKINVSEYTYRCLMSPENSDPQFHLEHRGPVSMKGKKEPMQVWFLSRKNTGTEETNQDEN
Description: Transfection of Soluble Guanylate Cyclase (sGC) gene into CHO-K1 cells and selection of cells with stably and highly expressed sGC: Rat sGCα1 and Rat sGCβ1 Genes were synthesized, and then pcDNA3.1(+)-rat sGCα1 and pcDNA3.1/Hygro (+)-rat sGCβ1 plasmid were constructed; the plasmid was co-transfected into CHO-K1 cells, and a positive clone cell line stably expressing CHO-K1-Rat sGC was selected using the Cisbio cGMP HTRF assay kit.
The activity of the compound on the CHO-K1-Rat sGC monoclonal cell line was determined: The CHO-K1-Rat sGC monoclonal cell line was cultured, and used for test operation at degree of fusion of about 70% to 90%. The cells were resuspended in complete medium after TrypLE digestion; the cells were inoculated in a 384-well (low volume tissues culture treated) cell culture plate at a seeding density of 7500/well in 25 μL of complete medium and incubated at 37° C. in 5% CO2 atmosphere for 20 hours; the test compounds were dissolved and dilute with DMSO to give 10 concentration gradients (2× working concentration); 384-well cell culture plates were centrifugated (200 g) for 3 seconds by inversion at RT, medium was removed; The test compounds in each different concentration gradient and corresponding reagent were added into each cell well according to the detection process of Cisbio cGMP HTRF assay kit. The data were collected with Envision HTRF detector and the EC50 value of each compound in activating soluble guanylate cyclase was calculated.

[2] = Pharmacokinetics in male SD rats after intravenous and oral administration; format: in vivo; settings: for F: po 5 mg/kg versus iv 1 mg/kg; for AUC(0-t) / Cmax / Tmax / clearance / half-life / Vd: rat, plasma; for Vd: read-out: Vss
Description: Preparation of test compound solution: The test compound was formulated with 5% dimethylsulfoxide, 5% Solutol HS 15 and 90% physiological saline to give solution, which was used for oral and intravenous administration.
Male SD rats weighing 190-250 g were randomly divided into two groups, each group had three members; one group received test compound at a dose of 1.0 mg/kg by intravenous injection, the other group received test compound at a dose of 2.5 or 5.0 mg/kg by oral. After dosing, blood samples were collected at time points of 0.0833, 0.25, 0.5, 1.0, 2.0, 4.0, 7.0 and 24 h. Standard curve was plotted based on concentrations of the samples in a suitable range, the concentrations of test compounds in plasma samples were determined by using AB SCIEX API4000 LC-MS/MS in MRM mode. Pharmacokinetic parameters were calculated according to drug concentration-time curve using a noncompartmental method by WinNonLin 6.3 software.

hERG potassium channel = target: T2, hERG potassium channel (Homo sapiens, UniProt Q12809); experiment: Inhibition of hERG potassium channel, manual patch clamp in HEK293 cells; format: cell-based; settings: hERG tail current; HEK293 cells overexpressing hERG; whole cell patch clamp; 22-24° C.
T2 construct: expressed in transfected cells; host or cells: HEK293
T2 sequence (Q12809 whole entry): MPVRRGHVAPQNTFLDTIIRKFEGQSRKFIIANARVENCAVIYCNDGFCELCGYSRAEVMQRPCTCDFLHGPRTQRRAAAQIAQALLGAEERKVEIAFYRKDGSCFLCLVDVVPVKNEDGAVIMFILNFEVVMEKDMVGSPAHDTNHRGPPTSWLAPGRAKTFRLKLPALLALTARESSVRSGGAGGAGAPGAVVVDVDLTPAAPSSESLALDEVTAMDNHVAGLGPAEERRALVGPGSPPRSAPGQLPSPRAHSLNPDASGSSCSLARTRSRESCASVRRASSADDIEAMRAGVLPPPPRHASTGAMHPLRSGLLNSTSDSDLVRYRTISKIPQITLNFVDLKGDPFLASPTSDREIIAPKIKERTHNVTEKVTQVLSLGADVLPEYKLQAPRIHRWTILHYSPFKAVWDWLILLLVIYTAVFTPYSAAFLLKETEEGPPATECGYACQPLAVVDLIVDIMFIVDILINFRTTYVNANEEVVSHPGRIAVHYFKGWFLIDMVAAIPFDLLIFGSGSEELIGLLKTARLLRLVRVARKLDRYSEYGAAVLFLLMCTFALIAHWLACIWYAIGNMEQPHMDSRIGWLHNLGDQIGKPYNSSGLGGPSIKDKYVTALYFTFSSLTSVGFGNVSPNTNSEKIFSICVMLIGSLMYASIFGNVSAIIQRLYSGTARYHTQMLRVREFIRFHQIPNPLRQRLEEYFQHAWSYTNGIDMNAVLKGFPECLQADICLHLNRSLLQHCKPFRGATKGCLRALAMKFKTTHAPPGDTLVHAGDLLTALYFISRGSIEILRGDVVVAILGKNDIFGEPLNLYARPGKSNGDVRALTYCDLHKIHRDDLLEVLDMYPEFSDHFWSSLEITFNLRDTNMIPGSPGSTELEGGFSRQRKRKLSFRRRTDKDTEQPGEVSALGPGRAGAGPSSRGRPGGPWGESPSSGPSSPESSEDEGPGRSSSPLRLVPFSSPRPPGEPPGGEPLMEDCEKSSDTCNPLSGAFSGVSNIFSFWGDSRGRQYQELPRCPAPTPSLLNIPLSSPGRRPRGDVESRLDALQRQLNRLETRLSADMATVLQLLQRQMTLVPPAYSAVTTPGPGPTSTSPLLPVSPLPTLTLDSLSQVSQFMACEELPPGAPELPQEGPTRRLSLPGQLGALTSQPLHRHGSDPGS
Description: Each compound was weighed and dissolved in DMSO and diluted with DMSO to a serial solution (30, 10, 3.3, 1.1, 0.37 mM). The above serial solutions were diluted to 1000-fold with the extracellular fluid to prepare test solutions (final concentration was 30, 10, 3.3, 1.1, 0.37 μM respectively).
The HEK293 cells that overexpressed the hERG potassium channel were cultured in a 37° C., 5% CO2 incubator, and the culture medium contained DMEM, 15% fetal bovine serum, and 1% penicillin-streptomycin. When the cell density reached 80% of the culture plate, the cells were digested with trypsin/EDTA and transferred to a centrifuge tube, centrifuged at 1000 rpm for 3 minutes, then supernatant was discarded, and the cell culture medium was added. The cells were mixed uniformly by gently blowing and beating. […]
The whole cell recording mode was used to record the channel current in the experiment. Firstly, the extracellular fluid was perfused (approximately 2 mL per minute) and the data were continuous recorded, and the current was kept steady (the current decay was less than 5% in 5 minutes). […] The extracellular fluid containing the test compound was then perfused and the data were continuous recorded until the compound's inhibitory effect on the hERG current reached a steady state, at this time point the peak value of tail current was the current value after dosing. […]

| SMILES | EC50 [1] | F [2] | AUC(0-t) ([2]; iv, 1 mg/kg) | Cmax ([2]; iv, 1 mg/kg) | Tmax ([2]; iv, 1 mg/kg) | clearance ([2]; iv, 1 mg/kg) | half-life ([2]; iv, 1 mg/kg) | Vd ([2]; iv, 1 mg/kg) | AUC(0-t) ([2]; po, 5 mg/kg) | Cmax ([2]; po, 5 mg/kg) | Tmax ([2]; po, 5 mg/kg) | half-life ([2]; po, 5 mg/kg) | IC50 (hERG potassium channel) |
| --- | --- | --- | --- | --- | --- | --- | --- | --- | --- | --- | --- | --- | --- |
| COC(=O)N(C)c1c(N)nc(-c2nn(Cc3ccccc3F)c3c(F)cc(F)cc23)nc1N [Example 2, methyl (4,6-diamino-2-(5,7-difluoro-1-(2-fluorobenzyl)-1H-indazol-3-yl)pyrimidin-5-yl)(methyl)carbamate] | 220 nM | 138.6% | 2020 ng·h/mL | 680 ng/mL | 0.083 h | 6.16 mL/min/kg | 3.7 h | 1.88 L/kg | 14000 ng·h/mL | 1130 ng/mL | 2 h | 3.61 h |  |
| COC(=O)N(C)c1c(N)nc(-c2nn(Cc3ccccc3F)c3cc(F)ccc23)nc1N [Example 6, methyl (4,6-diamino-2-(6-fluoro-1-(2-fluorobenzyl)-1H-indazol-3-yl)pyrimidin-5-yl)(methyl)carbamate] | 230 nM | 135.3% | 2700 ng·h/mL | 1310 ng/mL | 0.083 h | 6.18 mL/min/kg | 1.57 h | 1.07 L/kg | 18300 ng·h/mL | 2480 ng/mL | 1.33 h | 2.98 h |  |
| COC(=O)N(C)c1c(N)nc(-c2nn(Cc3ccccc3F)c3c(F)cccc23)nc1N [Example 11, methyl (4,6-diamino-2-(7-fluoro-1-(2-fluorobenzyl)-1H-indazol-3-yl)pyrimidin-5-yl)(methyl)carbamate] | 82 nM | 107.3% | 1220 ng·h/mL | 834 ng/mL | 0.083 h | 13.4 mL/min/kg | 1.37 h | 1.35 L/kg | 6580 ng·h/mL | 1080 ng/mL | 1.67 h | 2.45 h |  |

Now from value to compound, other results behind:

| EC50 [1] | F [2] | AUC(0-t) ([2]; iv, 1 mg/kg) | Cmax ([2]; iv, 1 mg/kg) | Tmax ([2]; iv, 1 mg/kg) | clearance ([2]; iv, 1 mg/kg) | half-life ([2]; iv, 1 mg/kg) | Vd ([2]; iv, 1 mg/kg) | AUC(0-t) ([2]; po, 5 mg/kg) | Cmax ([2]; po, 5 mg/kg) | Tmax ([2]; po, 5 mg/kg) | half-life ([2]; po, 5 mg/kg) | SMILES | IC50 (hERG potassium channel) |
| --- | --- | --- | --- | --- | --- | --- | --- | --- | --- | --- | --- | --- | --- |
|  | 93.4% | 10300 ng·h/mL | 2820 ng/mL | 0.083 h | 1.59 mL/min/kg | 4.49 h | 0.483 L/kg | 39700 ng·h/mL | 2690 ng/mL | 3.5 h | 10.9 h | COC(=O)Nc1c(N)nc(-c2nn(Cc3ccccc3F)c3cc(F)ccc23)nc1N [Example 5, methyl (4,6-diamino-2-(6-fluoro-1-(2-fluorobenzyl)-1H-indazol-3-yl)pyrimidin-5-yl)carbamate] | > 30000 nM |
| 36 nM | 109.8% | 921 ng·h/mL | 778 ng/mL | 0.083 h |  | 0.916 h | 6.38 L/kg | 5010 ng·h/mL | 1170 ng/mL | 1.67 h | 1.57 h | Nc1nc(-c2nn(Cc3ccccc3F)c3c(F)cccc23)nc(N)c1N1CCCS1(=O)=O [Example 13, 2-(4,6-diamino-2-(7-fluoro-1-(2-fluorobenzyl)-1H-indazol-3-yl)pyrimidin-5-yl)isothiazolidine 1,1-dioxide] |  |
| 300 nM | 86% | 2060 ng·h/mL | 981 ng/mL | 0.083 h | 7.91 mL/min/kg | 5.56 h | 2.03 L/kg | 8860 ng·h/mL | 768 ng/mL | 3 h | 3.13 h | Nc1nc(-c2nn(Cc3ccccc3F)c3c(F)cccc23)nc(N)c1N1CCOC1=O [Example 15, 3-(4,6-diamino-2-(7-fluoro-1-(2-fluorobenzyl)-1H-indazol-3-yl)pyrimidin-5-yl)oxazolidin-2-one] |  |
